Test results published in ChEMBL document CHEMBL1140602, “A simple, yet highly accurate, QSAR model captures the complement inhibitory activity of compstatin” (Bioorg Med Chem, 2007).
Positions of bridges follow the written chain, without caps; N, C: chain ends. Residues, ends and D or L forms follow the SMILES beside them.

Test: Inhibition of C3b activation relative to compstatin

logIC50: -0.301
SMILES: CC(C)C[C@@H]1NC(=O)[C@H](CCCNC(=N)N)NC(=O)CNC(=O)[C@H](Cc2c[nH]c3ccccc23)NC(=O)[C@H](CC(=O)O)NC(=O)[C@H](CCC(N)=O)NC(=O)[C@H](Cc2ccccc2)NC(=O)[C@H](C(C)C)NC(=O)[C@@H](NC(=O)[C@@H](N)CO)CSSC[C@@H](C(=O)N2CCC[C@H]2C(N)=O)NC(=O)[C@H](C)NC1=O (H-SCVFQDWGRLACP-NH2; disulfide 2-12)
